Data as given in patent US20170196913A1, “ENHANCEMENT OF GLUCOSE-STIMULATED INSULIN SECRETION BY CELLS THROUGH INDUCTION OF CELLULAR SENESCENCE” (YISSUM RESEARCH DEVELOPMENT COMPANY OF THE HEBREW …, priority 2016, published 2017).

Key:
Assay type in all cases: cell-based, human
[1] = test system: EndoC-βH2 cells; experiment: Glucose stimulated insulin secretion (GSIS) of Cre-infected EndoC-βH2 cells, ELISA; parameters: GSIS (insulin levels secreted): dose or concentration left out as unconfirmed; details: EndoC-βH2 cells infected with Cre, versus vehicle
[2] = test system: EndoC-βH2 cells; experiment: Mitochondrial activity (membrane potential) by TMRE staining, FACS, of Cre-infected EndoC-βH2 cells; details: EndoC-βH2 cells three weeks after Cre infection
[3] = test system: EndoC-βH2 cells; experiment: Cell size (FSC) by FACS of Cre-infected EndoC-βH2 cells; details: EndoC-βH2 cells three weeks after Cre infection, 250 nM Torin1 versus vehicle

Structure (SMILES)	GSIS (insulin levels secreted) ([1]; GW9662 twice a week for 3 weeks)	mitochondrial activity (TMRE staining) ([2]; GW9662 50 mM twice a week, versus vehicle)	levels of insulin secretion ([1]; 250 nM Torin1 starting 3 days after infection, for 3 weeks, low glucose 2.8 mM then high glucose 16.7 mM for 1 hour)	cell size (FSC) [3]	mitochondrial activity (TMRE staining) ([2]; 250 nM Torin1 versus vehicle)
O=C(Nc1ccccc1)c1cc([N+](=O)[O-])ccc1Cl [GW9662]	reduced GSIS	reduced	–	–	–
CCC(=O)N1CCN(c2ccc(-n3c(=O)ccc4cnc5ccc(-c6cnc7ccccc7c6)cc5c43)cc2C(F)(F)F)CC1 [Torin1]	–	–	lower levels of insulin secretion	reduced size	reduced
